Results published in PubChem BioAssay (NCI).
“And” between values parts separate entries of the source, which are not always exact repeats. Equal entries are not always repeated.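 Briefly, cells in 96-well plates were exposed to five compound concentrations for 48 h, and endpoints were estimated by linear interpolation. GI50 is the concentration that inhibits growth by half. TGI: concentration producing complete growth inhibition.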

Key:
Test in all cases: NCI-60 cell line screen, 48 h
A549 NSCLC = test system: A549 NSCLC
KM12 colon = test system: KM12 colon
SF-539 CNS = test system: SF-539 CNS
IGROV1 ovarian = test system: IGROV1 ovarian
NCI/ADR-RES ovarian = test system: NCI/ADR-RES ovarian
SNB-19 CNS = test system: SNB-19 CNS
HOP-92 NSCLC = test system: HOP-92 NSCLC
UO-31 renal = test system: UO-31 renal
NCI-H226 lung = test system: NCI-H226 lung
A498 renal = test system: A498 renal
MOLT-4 leukemia = test system: MOLT-4 leukemia
DU-145 prostate = test system: DU-145 prostate
CCRF-CEM leukemia = test system: CCRF-CEM leukemia
MDA-N = test system: MDA-N
HCT-15 colon = test system: HCT-15 colon
NCI-H460 lung = test system: NCI-H460 lung
COLO 205 colon = test system: COLO 205 colon
HT29 colon = test system: HT29 colon
MALME-3M melanoma = test system: MALME-3M melanoma
K-562 leukemia = test system: K-562 leukemia
PC-3 prostate = test system: PC-3 prostate
TK-10 renal = test system: TK-10 renal
HS 578T breast = test system: HS 578T breast
MDA-MB-435 = test system: MDA-MB-435
HOP-62 NSCLC = test system: HOP-62 NSCLC
SW-620 colon = test system: SW-620 colon
BT-549 breast = test system: BT-549 breast
EKVX NSCLC = test system: EKVX NSCLC
SF-295 CNS = test system: SF-295 CNS
UACC-62 melanoma = test system: UACC-62 melanoma
786-0 renal = test system: 786-0 renal
U251 CNS = test system: U251 CNS
RPMI-8226 leukemia = test system: RPMI-8226 leukemia
SNB-75 CNS = test system: SNB-75 CNS
SF-268 CNS = test system: SF-268 CNS
RXF 393 renal = test system: RXF 393 renal
OVCAR-5 ovarian = test system: OVCAR-5 ovarian
MCF7 breast = test system: MCF7 breast
ACHN renal = test system: ACHN renal
SK-MEL-28 melanoma = test system: SK-MEL-28 melanoma
HCT-116 colon = test system: HCT-116 colon
SK-MEL-5 melanoma = test system: SK-MEL-5 melanoma
SN12C renal = test system: SN12C renal
M14 melanoma = test system: M14 melanoma
OVCAR-8 ovarian = test system: OVCAR-8 ovarian
T-47D breast = test system: T-47D breast
HCC-2998 colon = test system: HCC-2998 colon
NCI-H23 lung = test system: NCI-H23 lung
HL-60(TB) leukemia = test system: HL-60(TB) leukemia
OVCAR-3 ovarian = test system: OVCAR-3 ovarian
SK-OV-3 ovarian = test system: SK-OV-3 ovarian
UACC-257 melanoma = test system: UACC-257 melanoma
CAKI-1 renal = test system: CAKI-1 renal
MDA-MB-231 breast = test system: MDA-MB-231 breast
NCI-H522 lung = test system: NCI-H522 lung
OVCAR-4 ovarian = test system: OVCAR-4 ovarian
SR leukemia = test system: SR leukemia
LOX IMVI melanoma = test system: LOX IMVI melanoma
SK-MEL-2 melanoma = test system: SK-MEL-2 melanoma

COc1cc2c(cc1OC)C1=Cc3cc(OC)c(OC)cc3C(C)N1C=C2 (stereo not drawn)
TGI (A549 NSCLC): > 100 µM
TGI (KM12 colon): > 100 µM
TGI (SF-539 CNS): > 100 µM
TGI (IGROV1 ovarian): > 100 µM
TGI (NCI/ADR-RES ovarian): > 100 µM
TGI (SNB-19 CNS): > 100 µM
TGI (HOP-92 NSCLC): > 100 µM
TGI (UO-31 renal): > 100 µM
TGI (NCI-H226 lung): > 100 µM
TGI (A498 renal): > 100 µM
TGI (MOLT-4 leukemia): > 100 µM
TGI (DU-145 prostate): > 100 µM
TGI (CCRF-CEM leukemia): > 100 µM
TGI (MDA-N): > 100 µM
TGI (HCT-15 colon): > 100 µM
TGI (NCI-H460 lung): > 100 µM
TGI (COLO 205 colon): > 100 µM
TGI (HT29 colon): > 100 µM
TGI (MALME-3M melanoma): > 100 µM
TGI (K-562 leukemia): > 100 µM
TGI (PC-3 prostate): > 100 µM
TGI (TK-10 renal): > 100 µM
TGI (HS 578T breast): > 100 µM
TGI (MDA-MB-435): > 100 µM
TGI (HOP-62 NSCLC): > 100 µM
TGI (SW-620 colon): > 100 µM
TGI (BT-549 breast): > 100 µM
TGI (EKVX NSCLC): > 100 µM
TGI (SF-295 CNS): > 100 µM
TGI (UACC-62 melanoma): > 100 µM
TGI (786-0 renal): > 100 µM
TGI (U251 CNS): > 100 µM
TGI (RPMI-8226 leukemia): > 100 µM
TGI (SNB-75 CNS): > 100 µM
TGI (SF-268 CNS): > 100 µM
TGI (RXF 393 renal): > 100 µM
TGI (OVCAR-5 ovarian): > 100 µM
TGI (MCF7 breast): > 100 µM
TGI (ACHN renal): > 100 µM
TGI (SK-MEL-28 melanoma): > 100 µM
TGI (HCT-116 colon): > 100 µM
TGI (SK-MEL-5 melanoma): > 100 µM
TGI (SN12C renal): > 100 µM
TGI (M14 melanoma): > 100 µM
TGI (OVCAR-8 ovarian): > 100 µM
TGI (T-47D breast): > 100 µM
TGI (HCC-2998 colon): > 100 µM
TGI (NCI-H23 lung): > 100 µM
TGI (HL-60(TB) leukemia): > 100 µM
TGI (OVCAR-3 ovarian): > 100 µM
TGI (SK-OV-3 ovarian): > 100 µM
TGI (UACC-257 melanoma): > 100 µM

CCOC(=O)/C=C(/C(=O)OCC)n1cc(Cl)c(=O)n(CC(=O)OCC)c1=O
GI50 (A549 NSCLC): 23.4 µM
TGI (A549 NSCLC): 18.1 µM and 67 µM
GI50 (KM12 colon): 21.2 µM
TGI (KM12 colon): > 25 µM and 43.8 µM
GI50 (SF-539 CNS): 16.9 µM
TGI (SF-539 CNS): 9.69 µM and 32.7 µM
GI50 (IGROV1 ovarian): 17.8 µM
TGI (IGROV1 ovarian): 9.25 µM and 37.1 µM
TGI (NCI/ADR-RES ovarian): 25 µM and 97.7 µM
TGI (CAKI-1 renal): 7.64 µM and 5.5 µM
GI50 (SNB-19 CNS): 32.7 µM
TGI (SNB-19 CNS): > 100 µM
TGI (HOP-92 NSCLC): 9.3 µM
TGI (NCI-H226 lung): > 25 µM and 32.5 µM
TGI (A498 renal): 34.6 µM
GI50 (MOLT-4 leukemia): 3.29 µM
TGI (MOLT-4 leukemia): 25 µM and 10.5 µM
TGI (DU-145 prostate): 8.47 µM and 31.3 µM
GI50 (CCRF-CEM leukemia): 2.12 µM
TGI (CCRF-CEM leukemia): 1.13 µM and 5.65 µM
GI50 (MDA-N): 16.4 µM
TGI (MDA-N): 11.9 µM and 31.4 µM
GI50 (HCT-15 colon): 19 µM
TGI (HCT-15 colon): 10.5 µM and 40.1 µM
GI50 (MDA-MB-231 breast): 20.6 µM
TGI (MDA-MB-231 breast): 10.7 µM and 36.8 µM
GI50 (NCI-H460 lung): 35.1 µM
TGI (NCI-H460 lung): 25 µM and > 100 µM
GI50 (COLO 205 colon): 1.32 µM
TGI (COLO 205 colon): 2.81 µM and 2.59 µM
GI50 (HT29 colon): 22.5 µM
TGI (HT29 colon): 9.38 µM and 52 µM
TGI (MALME-3M melanoma): 10.3 µM
TGI (NCI-H522 lung): 2.88 µM
GI50 (K-562 leukemia): 4.24 µM
TGI (K-562 leukemia): 25 µM and > 100 µM
GI50 (PC-3 prostate): 19.5 µM
TGI (PC-3 prostate): 9.64 µM and 34.6 µM
GI50 (TK-10 renal): 11.5 µM
TGI (TK-10 renal): 8.29 µM and 23.8 µM
TGI (MDA-MB-435): 9.95 µM and 36.6 µM
GI50 (HOP-62 NSCLC): 30.8 µM
TGI (HOP-62 NSCLC): 25 µM and 91.3 µM
GI50 (SW-620 colon): 3.04 µM
TGI (SW-620 colon): 4.45 µM and 12.9 µM
TGI (BT-549 breast): 10.6 µM and 37.8 µM
GI50 (EKVX NSCLC): 23.4 µM
TGI (EKVX NSCLC): 10.3 µM and 53.1 µM
GI50 (SF-295 CNS): > 100 µM
TGI (SF-295 CNS): > 100 µM
GI50 (UACC-62 melanoma): 18.6 µM
TGI (UACC-62 melanoma): 8.88 µM and 33.6 µM
GI50 (786-0 renal): 2.78 µM
TGI (786-0 renal): 2.48 µM and 7.5 µM
GI50 (OVCAR-4 ovarian): 34.2 µM
TGI (OVCAR-4 ovarian): 14 µM and > 100 µM
GI50 (U251 CNS): 21 µM
TGI (U251 CNS): 13.6 µM and 38.9 µM
TGI (RPMI-8226 leukemia): 5.73 µM
GI50 (SNB-75 CNS): 16.6 µM
TGI (SNB-75 CNS): 13 µM and 33.6 µM
GI50 (SF-268 CNS): 24 µM
TGI (SF-268 CNS): 12.2 µM and 41.4 µM
GI50 (RXF 393 renal): 0.298 µM
TGI (RXF 393 renal): 8.55 µM and 2.59 µM
GI50 (OVCAR-5 ovarian): 36.6 µM
TGI (SR leukemia): 25 µM
GI50 (LOX IMVI melanoma): 15.2 µM
TGI (LOX IMVI melanoma): 8.17 µM and 34.5 µM
TGI (MCF7 breast): 46.3 µM
GI50 (ACHN renal): 2.55 µM
TGI (ACHN renal): 7.35 µM and 6.22 µM
GI50 (SK-MEL-28 melanoma): 20.3 µM
TGI (SK-MEL-28 melanoma): 10.5 µM and 42.2 µM
GI50 (HCT-116 colon): 13.7 µM
TGI (HCT-116 colon): 9.67 µM and 28 µM
TGI (SK-MEL-5 melanoma): 9.28 µM and 30.6 µM
TGI (SN12C renal): 10.9 µM and 32.7 µM
GI50 (M14 melanoma): 18 µM
TGI (M14 melanoma): 10.4 µM and 40.2 µM
GI50 (OVCAR-8 ovarian): 12.6 µM
TGI (OVCAR-8 ovarian): 8.43 µM and 28.4 µM
GI50 (T-47D breast): 1.31 µM
TGI (T-47D breast): 18.9 µM and 4.28 µM
GI50 (SK-MEL-2 melanoma): 26.2 µM
TGI (SK-MEL-2 melanoma): 11.2 µM and 46.3 µM
GI50 (NCI-H23 lung): 20 µM
TGI (NCI-H23 lung): 10.8 µM and 41.5 µM
GI50 (HL-60(TB) leukemia): 11.2 µM
TGI (HL-60(TB) leukemia): 9.97 µM and 37.2 µM
GI50 (OVCAR-3 ovarian): 10.5 µM
TGI (OVCAR-3 ovarian): 14.3 µM and 28.8 µM
GI50 (SK-OV-3 ovarian): 41.4 µM
TGI (SK-OV-3 ovarian): > 100 µM
GI50 (UACC-257 melanoma): 20.7 µM
TGI (UACC-257 melanoma): 25 µM and 57.9 µM
